In patent US9932340B2, “Substituted indoles” (AbbVie Inc., priority 2014, dated 2018):

molecular target: SUV420H1 enzyme (Homo sapiens, UniProt Q4FZB7); test: TR-FRET SAH SUV420H1 enzyme inhibition assay; type: biochemical; conditions: Histone Peptide H4(8-30)me1 and SAM, overnight at room temp, TR-FRET detection of SAH, read-out: TR-FRET SAH_SUV420H1 IC50
In short: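 SUV420H1 (90 nM) preincubated 30 min with compound (3-fold dilutions, 50 to 0.00075 μM), then H4(8-30)me1 peptide 5 nM and SAM 4 nM added, overnight at room temp. SAH product detected by TR-FRET with Tb anti-SAH antibody and Oregon Green-SAH in RIPA buffer, 4 h; IC50 from Hill fit, asymptotes fixed 0-100%.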

Sequence of SUV420H1 enzyme (Q4FZB7 whole entry): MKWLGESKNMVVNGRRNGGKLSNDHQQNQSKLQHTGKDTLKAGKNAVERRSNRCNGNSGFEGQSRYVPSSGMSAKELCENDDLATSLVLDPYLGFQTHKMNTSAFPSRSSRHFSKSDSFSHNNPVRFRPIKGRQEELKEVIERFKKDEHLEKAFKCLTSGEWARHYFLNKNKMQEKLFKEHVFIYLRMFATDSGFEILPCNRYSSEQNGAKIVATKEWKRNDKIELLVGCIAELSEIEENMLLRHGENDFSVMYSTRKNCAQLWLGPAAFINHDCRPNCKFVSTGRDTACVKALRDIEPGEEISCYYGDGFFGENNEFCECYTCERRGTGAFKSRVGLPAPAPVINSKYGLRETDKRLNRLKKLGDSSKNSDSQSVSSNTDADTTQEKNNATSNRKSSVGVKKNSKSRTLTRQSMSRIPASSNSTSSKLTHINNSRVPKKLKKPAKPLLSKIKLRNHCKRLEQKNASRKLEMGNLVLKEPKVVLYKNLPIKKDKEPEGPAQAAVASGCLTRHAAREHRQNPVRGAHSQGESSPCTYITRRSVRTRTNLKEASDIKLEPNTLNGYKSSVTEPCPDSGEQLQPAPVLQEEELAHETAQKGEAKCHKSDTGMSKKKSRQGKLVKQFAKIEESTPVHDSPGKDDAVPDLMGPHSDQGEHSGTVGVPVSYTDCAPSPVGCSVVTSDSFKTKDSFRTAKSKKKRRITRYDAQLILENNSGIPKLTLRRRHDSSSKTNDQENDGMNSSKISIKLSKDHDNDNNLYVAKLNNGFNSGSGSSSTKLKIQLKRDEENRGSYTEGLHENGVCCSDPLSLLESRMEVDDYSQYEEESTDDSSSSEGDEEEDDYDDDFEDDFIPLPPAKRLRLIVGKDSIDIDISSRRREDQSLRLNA

Q: Which IC50 does the source give for Cc1noc(C)c1C(=O)NCc1cc2cc(-c3ccc(S(N)(=O)=O)cc3)cc(Cn3cnc4c(N)ncnc43)c2[nH]1 [Example 166, N-({7-[(6-amino-9H-purin-9-yl)methyl]-5-(4-sulfamoylphenyl)-1H-indol-2-yl}methyl)-3,5-dimethyl-1,2-oxazole-4-carboxamide] here?
A: Its IC50 is 88.9 nM.

Q: With Cc1ccc(-c2cc(Cn3cnc4c(N)ncnc43)c3[nH]c(CNC(=O)c4c(C)noc4C)cc3c2)cc1 [Example 167, N-({7-[(6-amino-9H-purin-9-yl)methyl]-5-(4-methylphenyl)-1H-indol-2-yl}methyl)-3,5-dimethyl-1,2-oxazole-4-carboxamide] as the compound, how does the IC50 read?
A: The IC50 was 225 nM.

Q: Which IC50 does the source give for COc1ccc(-c2cc(Cn3cnc4c(N)ncnc43)c3[nH]c(CNC(=O)c4c(C)noc4C)cc3c2)cc1 [Example 168, N-({7-[(6-amino-9H-purin-9-yl)methyl]-5-(4-methoxyphenyl)-1H-indol-2-yl}methyl)-3,5-dimethyl-1,2-oxazole-4-carboxamide] here?
A: The IC50 was 333 nM.

Q: COc1cccc(-c2cc(Cn3cnc4c(N)ncnc43)c3[nH]c(CNC(=O)c4c(C)noc4C)cc3c2)c1 [Example 169, N-({7-[(6-amino-9H-purin-9-yl)methyl]-5-(3-methoxyphenyl)-1H-indol-2-yl}methyl)-3,5-dimethyl-1,2-oxazole-4-carboxamide] was tested. Which IC50 did it give?
A: The IC50 was 80.1 nM.

Q: For Cc1noc(C)c1C(=O)NCc1cc2cc(-c3ccc(S(C)(=O)=O)cc3)cc(Cn3cnc4c(N)ncnc43)c2[nH]1 [Example 170, N-({7-[(6-amino-9H-purin-9-yl)methyl]-5-[4-(methylsulfonyl)phenyl]-1H-indol-2-yl}methyl)-3,5-dimethyl-1,2-oxazole-4-carboxamide], which IC50 is on record?
A: The IC50 was 208 nM.

Q: How did the IC50 turn out when Cc1noc(C)c1C(=O)NCc1cc2cc(-c3ccc(C#N)cc3)cc(Cn3cnc4c(N)ncnc43)c2[nH]1 [Example 171, N-({7-[(6-amino-9H-purin-9-yl)methyl]-5-(4-cyanophenyl)-1H-indol-2-yl}methyl)-3,5-dimethyl-1,2-oxazole-4-carboxamide] was run?
A: Its IC50 is 173 nM.

Q: How did the IC50 turn out when Cc1noc(C)c1C(=O)NCc1cc2cc(-c3cccc(C#N)c3)cc(Cn3cnc4c(N)ncnc43)c2[nH]1 [Example 172, N-({7-[(6-amino-9H-purin-9-yl)methyl]-5-(3-cyanophenyl)-H-indol-2-yl}methyl)-3,5-dimethyl-1,2-oxazole-4-carboxamide] was run?
A: Its IC50 is 66.1 nM.

Q: Which IC50 does the source give for Cc1noc(C)c1C(=O)NCc1cc2cc(-c3cccc(C(N)=O)c3)cc(Cn3cnc4c(N)ncnc43)c2[nH]1 [Example 173, N-({7-[(6-amino-9H-purin-9-yl)methyl]-5-(3-carbamoylphenyl)-1H-indol-2-yl}methyl)-3,5-dimethyl-1,2-oxazole-4-carboxamide] here?
A: The IC50 was 41.2 nM.

Q: For Cc1noc(C)c1C(=O)NCc1cc2cc(-c3ccc(NS(C)(=O)=O)cc3)cc(Cn3cnc4c(N)ncnc43)c2[nH]1 [Example 174, N-[(7-[(6-amino-9H-purin-9-yl)methyl]-5-{4-[(methylsulfonyl)amino]phenyl}-1H-indol-2-yl)methyl]-3,5-dimethyl-1,2-oxazole-4-carboxamide], which IC50 is on record?
A: The IC50 was 101 nM.

Q: For Cc1noc(C)c1C(=O)NCc1cc2cc(-c3ccc(CC#N)cc3)cc(Cn3cnc4c(N)ncnc43)c2[nH]1 [Example 175, N-({7-[(6-amino-9H-purin-9-yl)methyl]-5-[4-(cyanomethyl)phenyl]-1H-indol-2-yl}methyl)-3,5-dimethyl-1,2-oxazole-4-carboxamide], which IC50 is on record?
A: The IC50 was 82.8 nM.

Q: How did the IC50 turn out when Cc1noc(C)c1C(=O)NCc1cc2cc(-c3ccc(C(=O)N(C)C)cc3)cc(Cn3cnc4c(N)ncnc43)c2[nH]1 [Example 176, N-({7-[(6-amino-9H-purin-9-yl)methyl]-5-[4-(dimethylcarbamoyl)phenyl]-1H-indol-2-yl}methyl)-3,5-dimethyl-1,2-oxazole-4-carboxamide] was run?
A: The IC50 was 87.5 nM.

Q: Cc1noc(C)c1C(=O)NCc1cc2cc(-c3cccc(C(=O)N(C)C)c3)cc(Cn3cnc4c(N)ncnc43)c2[nH]1 [Example 177, N-({7-[(6-amino-9H-purin-9-yl)methyl]-5-[3-(dimethylcarbamoyl)phenyl]-1H-indol-2-yl}methyl)-3,5-dimethyl-1,2-oxazole-4-carboxamide] was tested. Which IC50 did it give?
A: Its IC50 is 106 nM.
